According to patent US20090099237A1, “Methods of treating inflammatory diseases” (Roche Palo Alto LLC, priority 2007, published 2009):

Experiments:
CLK2 = biological target: T1, CLK2 (Homo sapiens, UniProt P49760); assay: KinomeScan kinase profiling; format: binding; details: 10 μM
T1 construct: purchased Ambit Biosciences (San Diego, Calif.)

PHKG1 = PHKG1 (Homo sapiens, UniProt Q16816); assay: KinomeScan kinase profiling; format: binding; details: 10 μM
INSR = biological target: T2, INSR (Homo sapiens, UniProt P06213); assay: KinomeScan kinase profiling; format: binding; details: 10 μM
T2 construct: purchased Ambit Biosciences
From the text: (§1) The selectivity of a given CK1α, CK1α-CK1δ, CK1α-CK1ε or CK1α-CK1δ-CK1ε inhibitor compound can be determined by testing the compound against a panel of known kinases. An example of such a kinase profiling technology is the “KinomeScan” from Ambit Biosciences in which compounds can be screened for their modulatory activities against more than 200 known kinases.

EPHA7 = biological target: T3, EPHA7 (Homo sapiens, UniProt Q15375); assay: KinomeScan kinase profiling; format: binding; details: 10 μM
T3 construct: purchased Ambit Biosciences (San Diego, Calif.)
From the text: as §1

AKT1 = biological target: T4, AKT1 (Homo sapiens, UniProt P31749); assay: KinomeScan kinase profiling; format: binding; details: 10 μM
T4 construct: purchased Ambit Biosciences
From the text: as §1

TTK = biological target: T5, TTK (Homo sapiens, UniProt P33981); assay: KinomeScan kinase profiling; format: binding; details: 10 μM
T5 construct: purchased Ambit Biosciences
From the text: as §1

ERBB2 = biological target: T6, ERBB2 (Homo sapiens, UniProt P04626); assay: KinomeScan kinase profiling; format: binding; details: 10 μM
T6 construct: purchased Ambit Biosciences
From the text: as §1

DMPK = biological target: T7, DMPK (Homo sapiens, UniProt Q09013); assay: KinomeScan kinase profiling; format: binding; details: 10 μM
T7 construct: purchased Ambit Biosciences (San Diego, Calif.)
From the text: as §1

GAK = biological target: T8, GAK (Homo sapiens, UniProt O14976); assay: KinomeScan kinase profiling; format: binding; details: 10 μM
T8 construct: purchased Ambit Biosciences
From the text: as §1

BLK = biological target: T9, BLK (Homo sapiens, UniProt P51451); assay: KinomeScan kinase profiling; format: binding; details: 10 μM
T9 construct: purchased Ambit Biosciences
From the text: as §1

CAMK1G = biological target: T10, CAMK1G (Homo sapiens, UniProt Q96NX5); assay: KinomeScan kinase profiling; format: binding; details: 10 μM
T10 construct: purchased Ambit Biosciences
From the text: as §1

PAK3 = PAK3 (Homo sapiens, UniProt O75914); assay: KinomeScan kinase profiling; format: binding; details: 10 μM
PAK3, sequence (O75914 whole entry): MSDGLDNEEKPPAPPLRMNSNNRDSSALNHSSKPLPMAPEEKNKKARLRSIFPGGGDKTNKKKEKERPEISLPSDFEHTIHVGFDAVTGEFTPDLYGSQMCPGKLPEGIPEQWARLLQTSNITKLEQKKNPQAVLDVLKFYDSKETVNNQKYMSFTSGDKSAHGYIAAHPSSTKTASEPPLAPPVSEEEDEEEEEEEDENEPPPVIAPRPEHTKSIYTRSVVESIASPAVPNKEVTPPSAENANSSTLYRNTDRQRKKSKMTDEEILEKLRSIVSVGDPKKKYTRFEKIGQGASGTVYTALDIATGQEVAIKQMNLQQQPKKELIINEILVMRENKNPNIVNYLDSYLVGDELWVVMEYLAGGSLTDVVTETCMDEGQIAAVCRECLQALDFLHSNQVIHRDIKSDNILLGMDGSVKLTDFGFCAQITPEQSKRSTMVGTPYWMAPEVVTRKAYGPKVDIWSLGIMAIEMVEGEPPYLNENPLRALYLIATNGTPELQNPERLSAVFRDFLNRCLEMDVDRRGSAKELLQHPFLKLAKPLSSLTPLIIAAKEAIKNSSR
From the text: as §1

AAK1 = biological target: T11, AAK1 (Homo sapiens, UniProt Q2M2I8); assay: KinomeScan kinase profiling; format: binding; details: 10 μM
T11 construct: purchased Ambit Biosciences
From the text: as §1

ACK1 = biological target: T12, ACK1 (Homo sapiens, UniProt Q07912); assay: KinomeScan kinase profiling; format: binding; details: 10 μM
T12 construct: purchased Ambit Biosciences
From the text: as §1

MAP4K5 = MAP4K5 (Homo sapiens, UniProt Q9Y4K4); assay: KinomeScan kinase profiling; format: binding; details: 10 μM
MAP4K5, sequence (Q9Y4K4 whole entry): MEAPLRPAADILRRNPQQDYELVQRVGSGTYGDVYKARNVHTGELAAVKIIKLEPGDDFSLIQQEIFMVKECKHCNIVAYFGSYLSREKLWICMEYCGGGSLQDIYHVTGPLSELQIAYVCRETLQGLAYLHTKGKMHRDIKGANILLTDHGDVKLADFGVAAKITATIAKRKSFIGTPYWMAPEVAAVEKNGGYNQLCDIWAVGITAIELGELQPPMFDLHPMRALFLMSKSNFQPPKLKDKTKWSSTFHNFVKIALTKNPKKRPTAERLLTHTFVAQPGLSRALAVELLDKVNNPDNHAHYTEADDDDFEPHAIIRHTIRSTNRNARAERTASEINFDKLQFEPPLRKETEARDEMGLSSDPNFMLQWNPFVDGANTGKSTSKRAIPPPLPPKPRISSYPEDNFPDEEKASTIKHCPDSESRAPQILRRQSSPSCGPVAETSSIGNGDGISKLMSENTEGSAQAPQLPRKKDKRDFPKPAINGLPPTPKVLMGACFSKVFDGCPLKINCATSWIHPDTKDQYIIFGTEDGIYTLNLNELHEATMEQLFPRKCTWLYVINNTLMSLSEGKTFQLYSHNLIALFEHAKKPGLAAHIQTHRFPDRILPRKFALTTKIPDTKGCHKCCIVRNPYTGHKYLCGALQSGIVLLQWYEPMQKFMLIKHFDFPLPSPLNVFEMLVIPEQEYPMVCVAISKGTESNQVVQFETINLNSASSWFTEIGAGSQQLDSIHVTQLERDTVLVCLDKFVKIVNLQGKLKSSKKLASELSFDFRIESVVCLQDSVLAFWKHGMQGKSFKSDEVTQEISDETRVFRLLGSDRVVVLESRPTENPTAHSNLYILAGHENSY
From the text: as §1

RPS6KA5 = biological target: T13, RPS6KA5 (Homo sapiens, UniProt O75582); assay: KinomeScan kinase profiling; format: binding; details: 10 μM
T13 construct: purchased Ambit Biosciences
From the text: as §1

ABL2 = biological target: T14, ABL2 (Homo sapiens, UniProt P42684); assay: KinomeScan kinase profiling; format: binding; details: 10 μM
T14 construct: purchased Ambit Biosciences
T14 sequence (P42684 whole entry): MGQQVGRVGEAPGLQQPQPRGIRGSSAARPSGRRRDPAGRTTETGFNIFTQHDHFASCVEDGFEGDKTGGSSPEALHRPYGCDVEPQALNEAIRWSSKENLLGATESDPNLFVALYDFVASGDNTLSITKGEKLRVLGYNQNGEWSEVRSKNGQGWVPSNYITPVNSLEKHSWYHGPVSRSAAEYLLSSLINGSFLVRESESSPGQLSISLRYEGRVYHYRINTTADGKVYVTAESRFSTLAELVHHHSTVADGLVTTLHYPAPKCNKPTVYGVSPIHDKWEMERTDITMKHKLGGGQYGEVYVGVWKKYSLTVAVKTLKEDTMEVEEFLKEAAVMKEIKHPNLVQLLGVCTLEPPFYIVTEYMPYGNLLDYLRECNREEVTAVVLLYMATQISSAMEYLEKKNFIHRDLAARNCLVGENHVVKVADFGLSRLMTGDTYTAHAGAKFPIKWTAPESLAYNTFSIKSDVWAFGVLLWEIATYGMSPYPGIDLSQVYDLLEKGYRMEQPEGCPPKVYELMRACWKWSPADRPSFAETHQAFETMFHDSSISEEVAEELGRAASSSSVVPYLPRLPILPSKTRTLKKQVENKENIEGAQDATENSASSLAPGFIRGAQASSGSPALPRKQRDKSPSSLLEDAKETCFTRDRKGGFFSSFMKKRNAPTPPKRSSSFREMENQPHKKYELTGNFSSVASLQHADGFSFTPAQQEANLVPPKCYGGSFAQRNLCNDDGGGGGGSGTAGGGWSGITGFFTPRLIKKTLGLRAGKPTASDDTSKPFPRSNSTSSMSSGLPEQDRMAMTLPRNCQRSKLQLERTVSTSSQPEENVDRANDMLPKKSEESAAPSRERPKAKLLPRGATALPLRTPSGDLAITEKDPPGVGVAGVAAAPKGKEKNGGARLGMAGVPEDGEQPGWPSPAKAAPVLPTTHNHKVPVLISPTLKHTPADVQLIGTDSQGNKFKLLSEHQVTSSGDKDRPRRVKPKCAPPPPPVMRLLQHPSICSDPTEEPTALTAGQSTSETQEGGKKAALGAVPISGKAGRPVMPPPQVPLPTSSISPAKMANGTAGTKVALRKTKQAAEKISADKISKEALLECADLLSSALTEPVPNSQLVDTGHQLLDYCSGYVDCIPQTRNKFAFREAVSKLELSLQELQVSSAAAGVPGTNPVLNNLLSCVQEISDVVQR
From the text: as §1

CSNK1G1 = biological target: T15, CSNK1G1 (Homo sapiens, UniProt Q9HCP0); assay: KinomeScan kinase profiling; format: binding; details: 10 μM
T15 construct: purchased Ambit Biosciences (San Diego, Calif.)
From the text: as §1

NEK6 = NEK6 (Homo sapiens, UniProt Q9HC98); assay: KinomeScan kinase profiling; format: binding; details: 10 μM
From the text: as §1

TXK = biological target: T16, TXK (Homo sapiens, UniProt P42681); assay: KinomeScan kinase profiling; format: binding; details: 10 μM
T16 construct: purchased Ambit Biosciences
From the text: as §1

NEK2 = NEK2 (Homo sapiens, UniProt P51955); assay: KinomeScan kinase profiling; format: binding; details: 10 μM
From the text: as §1

PDGFRB = PDGFRB (Homo sapiens, UniProt P09619); assay: KinomeScan kinase profiling; format: binding; details: 10 μM
From the text: as §1

FGFR1 = biological target: T17, FGFR1 (Homo sapiens, UniProt P11362); assay: KinomeScan kinase profiling; format: binding; details: 10 μM
T17 construct: purchased Ambit Biosciences
From the text: as §1

CLK1 = biological target: T18, CLK1 (Homo sapiens, UniProt P49759); assay: KinomeScan kinase profiling; format: binding; details: 10 μM
T18 construct: purchased Ambit Biosciences (San Diego, Calif.)
From the text: as §1

YES = biological target: T19, YES (Homo sapiens, UniProt P07947); assay: KinomeScan kinase profiling; format: binding; details: 10 μM
T19 construct: purchased Ambit Biosciences
T19 sequence (P07947 whole entry): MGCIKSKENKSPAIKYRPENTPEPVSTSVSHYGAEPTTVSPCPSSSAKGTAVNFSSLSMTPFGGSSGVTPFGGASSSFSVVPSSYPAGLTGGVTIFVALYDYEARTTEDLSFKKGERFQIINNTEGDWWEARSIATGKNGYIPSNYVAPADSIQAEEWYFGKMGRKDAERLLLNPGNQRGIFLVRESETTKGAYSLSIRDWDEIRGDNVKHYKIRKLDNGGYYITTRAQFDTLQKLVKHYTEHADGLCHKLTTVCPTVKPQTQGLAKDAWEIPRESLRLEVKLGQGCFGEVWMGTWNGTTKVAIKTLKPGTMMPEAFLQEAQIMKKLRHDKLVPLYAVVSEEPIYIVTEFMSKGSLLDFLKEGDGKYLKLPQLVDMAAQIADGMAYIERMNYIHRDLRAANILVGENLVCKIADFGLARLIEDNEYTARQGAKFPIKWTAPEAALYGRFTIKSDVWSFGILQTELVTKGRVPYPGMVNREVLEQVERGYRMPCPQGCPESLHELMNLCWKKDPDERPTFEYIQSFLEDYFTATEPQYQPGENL
From the text: as §1

SYK = biological target: T20, SYK (Homo sapiens, UniProt P43405); assay: KinomeScan kinase profiling; format: binding; details: 10 μM
T20 construct: purchased Ambit Biosciences
From the text: as §1

AURKC = biological target: T21, AURKC (Homo sapiens, UniProt Q9UQB9); assay: KinomeScan kinase profiling; format: binding; details: 10 μM
T21 construct: purchased Ambit Biosciences
T21 sequence (Q9UQB9 whole entry): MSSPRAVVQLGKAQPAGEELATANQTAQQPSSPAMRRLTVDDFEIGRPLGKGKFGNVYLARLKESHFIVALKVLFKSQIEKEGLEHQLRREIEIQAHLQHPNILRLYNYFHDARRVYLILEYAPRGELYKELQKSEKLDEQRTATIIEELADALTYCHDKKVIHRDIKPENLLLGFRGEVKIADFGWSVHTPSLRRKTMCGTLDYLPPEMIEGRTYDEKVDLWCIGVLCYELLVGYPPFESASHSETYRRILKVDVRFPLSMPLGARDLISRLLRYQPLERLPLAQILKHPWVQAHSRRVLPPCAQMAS
From the text: as §1

CSK = biological target: T22, CSK (Homo sapiens, UniProt P41240); assay: KinomeScan kinase profiling; format: binding; details: 10 μM
T22 construct: purchased Ambit Biosciences (San Diego, Calif.)
From the text: as §1

ULK3(mouse) = biological target: T23, ULK3(mouse) (Mus musculus, UniProt Q3U3Q1); assay: KinomeScan kinase profiling; format: binding; details: 10 μM
T23 construct: purchased Ambit Biosciences
From the text: as §1

p38-gamma = p38-gamma (Homo sapiens, UniProt P53778); assay: KinomeScan kinase profiling; format: binding; details: 10 μM
From the text: as §1

TIE2 = biological target: T24, TIE2 (Homo sapiens, UniProt Q02763); assay: KinomeScan kinase profiling; format: binding; details: 10 μM
T24 construct: purchased Ambit Biosciences
T24 sequence (Q02763 23-1124): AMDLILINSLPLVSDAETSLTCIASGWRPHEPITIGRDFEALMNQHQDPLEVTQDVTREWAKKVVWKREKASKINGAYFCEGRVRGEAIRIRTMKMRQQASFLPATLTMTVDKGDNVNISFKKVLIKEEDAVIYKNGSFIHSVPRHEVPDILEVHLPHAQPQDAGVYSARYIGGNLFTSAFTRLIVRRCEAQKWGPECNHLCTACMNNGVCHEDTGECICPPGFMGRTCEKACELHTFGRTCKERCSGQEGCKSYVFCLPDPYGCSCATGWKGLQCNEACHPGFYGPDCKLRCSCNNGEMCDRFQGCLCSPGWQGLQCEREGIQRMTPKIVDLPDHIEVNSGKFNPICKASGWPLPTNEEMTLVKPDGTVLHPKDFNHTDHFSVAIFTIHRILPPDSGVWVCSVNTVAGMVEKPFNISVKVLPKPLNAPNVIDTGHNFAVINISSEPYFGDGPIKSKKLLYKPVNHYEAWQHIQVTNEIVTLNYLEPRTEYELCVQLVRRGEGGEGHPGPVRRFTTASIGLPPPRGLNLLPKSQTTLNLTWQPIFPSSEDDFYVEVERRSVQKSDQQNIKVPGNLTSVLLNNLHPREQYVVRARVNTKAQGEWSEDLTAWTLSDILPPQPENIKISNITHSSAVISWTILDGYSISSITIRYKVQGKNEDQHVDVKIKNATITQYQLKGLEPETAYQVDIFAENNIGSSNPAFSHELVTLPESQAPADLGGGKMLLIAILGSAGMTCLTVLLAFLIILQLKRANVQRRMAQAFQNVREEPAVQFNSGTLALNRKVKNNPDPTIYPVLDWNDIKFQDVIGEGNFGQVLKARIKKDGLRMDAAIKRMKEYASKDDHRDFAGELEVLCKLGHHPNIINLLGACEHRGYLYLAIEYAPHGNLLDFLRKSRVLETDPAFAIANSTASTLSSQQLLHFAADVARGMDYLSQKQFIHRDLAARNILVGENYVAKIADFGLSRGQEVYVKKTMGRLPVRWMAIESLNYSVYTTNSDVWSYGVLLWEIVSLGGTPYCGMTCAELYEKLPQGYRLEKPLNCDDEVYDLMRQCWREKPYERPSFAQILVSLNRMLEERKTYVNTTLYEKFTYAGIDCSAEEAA
From the text: as §1

HCK = biological target: T25, HCK (Homo sapiens, UniProt P08631); assay: KinomeScan kinase profiling; format: binding; details: 10 μM
T25 construct: purchased Ambit Biosciences
From the text: as §1

[1] = system: IL-6 production in human umbilical vein endothelial cells (HUVECs); assay: Cytokine-induced IL-6 production assay in HUVEC; format: cell-based; details: IL-1β or LPS stimulation for 6 hours, ELISA, FIG. 4
Description: Clonetics® primary human umbilical vein endothelial cells (HUVEC; Lonza Walkersville, Inc., Walkersville, Md.) were cultured according to the manufacturer's instructions in EGM™-2 medium (Lonza) supplemented with EGM-2 SingleQuots (containing fetal bovine serum, hydrocortisone, hFGF, VEGF, hFGF-B, R3-IGF-1, ascorbic acid, hEGF, heparin and gentamicin; Lonza). Where indicated, cells were stimulated with 1 ng/mL IL-1β (R&D Systems, Inc., Minneapolis, Minn.) or 50 ng/mL LPS (Sigma-Aldrich, St. Louis, Mo.) for 6 or 24 hours before cell or supernatant harvest.
Activity of IC261 and Compound A against cytokine-induced inflammation in vitro was determined in human umbilical vein endothelial cells (HUVECs) upon stimulation with either IL-1β or LPS for 6 hours. IL-6 was assessed in supernatants by ELISA according to the manufacturer's instructions (BD Biosciences), and % inhibition calculated based on maximal IL-6 production in each assay.

T1 sequence (P49760 whole entry): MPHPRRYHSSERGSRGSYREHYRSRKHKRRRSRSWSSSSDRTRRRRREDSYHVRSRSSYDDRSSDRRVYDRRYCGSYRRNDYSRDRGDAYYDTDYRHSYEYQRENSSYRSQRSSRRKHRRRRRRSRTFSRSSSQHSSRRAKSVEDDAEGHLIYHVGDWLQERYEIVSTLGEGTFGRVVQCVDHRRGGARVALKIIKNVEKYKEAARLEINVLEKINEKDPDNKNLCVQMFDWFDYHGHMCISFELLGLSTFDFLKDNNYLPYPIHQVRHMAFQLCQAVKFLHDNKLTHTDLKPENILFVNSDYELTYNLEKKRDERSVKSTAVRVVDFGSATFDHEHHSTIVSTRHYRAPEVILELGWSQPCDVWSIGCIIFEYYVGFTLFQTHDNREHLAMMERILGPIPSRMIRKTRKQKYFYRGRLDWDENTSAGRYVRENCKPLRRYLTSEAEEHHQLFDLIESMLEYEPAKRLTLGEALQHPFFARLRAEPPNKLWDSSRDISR

| SMILES | % Binding (CLK2) [%] | % Binding (PHKG1) [%] | % Binding (INSR) [%] | % Binding (EPHA7) [%] | % Binding (AKT1) [%] | % Binding (TTK) [%] | % Binding (ERBB2) [%] | % Binding (DMPK) [%] | % Binding (GAK) [%] | % Binding (BLK) [%] | % Binding (CAMK1G) [%] | % Binding (PAK3) [%] | % Binding (AAK1) [%] | % Binding (ACK1) [%] | % Binding (MAP4K5) [%] | % Binding (RPS6KA5) [%] | % Binding (ABL2) [%] | % Binding (CSNK1G1) [%] | % Binding (NEK6) [%] | % Binding (TXK) [%] | further results |
| --- | --- | --- | --- | --- | --- | --- | --- | --- | --- | --- | --- | --- | --- | --- | --- | --- | --- | --- | --- | --- | --- |
| COc1cc(OC)c(C=C2C(O)=Nc3ccccc32)c(OC)c1 [IC261, 3-[(2,4,6-trimethoxyphenyl)methylidenyl]-indolin-2-one] | <50 | <50 | <50 | <50 | <50 | <50 | <50 | <50 | <50 | <50 | <50 | <50 | <50 | <50 | <50 | <50 | <50 | <50 | <50 | <50 | % Binding (NEK2): <50%; % Binding (PDGFRB): <50%; % Binding (FGFR1): <50%; % Binding (CLK1): <50%; % Binding (YES): <50%; % Binding (SYK): <50%; % Binding (AURKC): <50%; % Binding (CSK): <50%; % Binding (ULK3(mouse)): <50%; % Binding (p38-gamma): <50%; % Binding (TIE2): <50%; % Binding (HCK): <50%; inhibition of IL-1β or LPS-induced IL-6 production [1]: inhibition |
| NC(=O)c1cc(-c2ccncc2)c[nH]1 [Compound A, 4-Pyridin-4-yl-1H-pyrrole-2-carboxylic acid amide] | <50 | <50 | <50 | <50 | <50 | <50 | <50 | <50 | <50 | <50 | <50 | <50 | 69 | <50 | <50 | <50 | <50 | <50 | <50 | <50 | % Binding (NEK2): <50%; % Binding (PDGFRB): <50%; % Binding (FGFR1): <50%; % Binding (CLK1): 97%; % Binding (YES): <50%; % Binding (SYK): <50%; % Binding (AURKC): <50%; % Binding (CSK): <50%; % Binding (ULK3(mouse)): <50%; % Binding (p38-gamma): <50%; % Binding (TIE2): <50%; % Binding (HCK): <50%; inhibition of IL-1β or LPS-induced IL-6 production [1]: inhibition |
